# Several values for one entry are separate records, joined by “and”; a condition that tells them apart may be missing. Equal entries are not always repeated. Where two headings read alike, the source gives them in different places.
# What was measured:
# HsMDH2 = settings: Supplementary Table 1, cited from earlier work
# MDH = settings: cited from earlier work
# PfMDH [1] = target: T1, PfMDH (Plasmodium falciparum, UniProt Q6VVP7); settings: Supplementary Table 2; ref 10.1021/jm070336k; cited from earlier work
# T1 construct: The full-length WT PfMDH gene was cloned into pETM-13; made in house; host or cells: E. coli Rosetta 2 (DE3) pLysS
# HsMDH1 = test system: HsMDH1; design: method as in earlier work; settings: Supplementary Table 1; ref 10.1021/acs.jmedchem.7b01231; cited from earlier work
# PfMDH [2] = target: T1, PfMDH; test: Small-angle X-ray scattering (SAXS) of PfMDH with compounds; settings: 1 mM compound; for radius of gyration Rg of PfMDH in complex: apo PfMDH 33.78 ± 5.51
# Protocol: X-ray scattering experiments were performed using the laboratory SAXS system Xeuss 2.0 (XENOCS, Grenoble, France) equipped with a MetalJet D2 microfocus X-ray generator (0.134 nm wavelength). The protein solution at a concentration of 2.49 mg ml^−1 was mixed with 4PA derivatives at a concentration of 1 mM, incubated for 1 h at room temperature, and spun at 16,000 rpm (Eppendorf Centrifuge 5415R) to remove any potential aggregates prior to injection into the low-noise liquid sample cell. SAXS data were collected in 3–4 subsequent 10 min long frames using a Pilatus3R 1 M hybrid photon counting detector (Dectris, Switzerland). Data reduction and buffer subtraction procedures were performed using the Foxtrot package. Scattering profiles were assessed for radiation-damaged and averaged. Structural parameters were calculated in Primus from the ATSAS package. The distance distribution function was calculated using GNOM[58].
# PfMDH [3] = target: T1, PfMDH; test: Dynamic light scattering (DLS), aggregation; settings: PfMDH samples incubated with compound
# Protocol: Measurements were performed on Litesizer 500 (Anton Paar). Samples were incubated with the highest concentrations of compounds for 2 h at room temperature. Prior to measurements, samples were spun for 5 min at 16,000 rpm (Eppendorf Centrifuge 5415R) to remove aggregates.
# [4] = Precipitation / turbidity of compound in assay buffer (600 nm); assay type: physicochemical; settings: activity screening buffer, 500 µM
# Protocol: 1.3 µL of derivatives of 4-phenylthiazol-2-amine in 100% DMSO were mixed with 237.7 µL of a mastermix of WT PfMDH previously incubated with NAD+. The final compound concentration used in this screening was 500 µM in the presence of 0.5% (v/v) DMSO. The microplate was sealed with silver foil for 1-h incubation at 25–35 °C. Finally, reactions in both the samples and control wells were started upon the addition of 13.0 µL of 5 mM malate). At the end of the experiments, the reaction of the plate was spectrophotometrically assayed at 600 nm in order to identify turbidity due to the low solubility of the compound. All measurements were performed in duplicate.
# [5] = ref 10.1021/acs.jmedchem.7b01231
# T1 sequence (Q6VVP7 entry or part of it): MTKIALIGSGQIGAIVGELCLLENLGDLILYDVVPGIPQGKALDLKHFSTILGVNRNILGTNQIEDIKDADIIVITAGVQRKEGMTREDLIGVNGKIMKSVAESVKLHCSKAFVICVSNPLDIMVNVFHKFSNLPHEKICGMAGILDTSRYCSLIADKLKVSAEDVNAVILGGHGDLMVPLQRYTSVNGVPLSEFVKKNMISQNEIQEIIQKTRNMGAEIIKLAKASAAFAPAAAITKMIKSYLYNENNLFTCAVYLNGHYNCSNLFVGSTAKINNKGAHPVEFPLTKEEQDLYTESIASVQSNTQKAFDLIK
smiles,measurement,setting,value
COC(=O)c1ccc(O)c(NC(=O)CCCOc2ccc(C(C)(C)CC(C)(C)C)cc2)c1 [Inhibitor 14c],IC50,HsMDH2; [5],1.11 ± 0.01 µM
O=C1Cc2c([nH]c3ccc(Br)cc23)-c2ccccc2N1Cc1ccc(Cl)c(Cl)c1 [Inhibitor 4h],IC50,HsMDH2; ref 10.1016/j.ejmech.2009.10.018,1.1 ± 0.1 µM
CC(=O)c1c(O)c(C)c(O)c(Cc2c(O)c3c(c(C(=O)/C=C/c4ccccc4)c2O)OC(C)(C)C=C3)c1O [rottlerin],IC50,MDH,0.7 µM
O=C(O)C(=O)Nc1ccc(CCOc2cc(O)c3c(=O)cc(C(=O)O)oc3c2)cc1 [Inhibitor 2],IC50,PfMDH [1],> 241 µM
COc1cc(CCOc2cc(O)c3c(=O)cc(C(=O)O)oc3c2)ccc1NC(=O)C(=O)O [Inhibitor 4],IC50,PfMDH [1],> 225 µM
COc1ccc(CNC(=O)c2cc(=O)c3c(O)cc(OCCc4ccc(NC(=O)C(=O)O)c(OC)c4)cc3o2)cc1 [Inhibitor 7],IC50,PfMDH [1],2.66 ± 0.24 µM
COC(=O)c1cccc(NC(=O)CCCOc2ccc(C(C)(C)CC(C)(C)C)cc2)c1 [Inhibitor 14b],IC50,HsMDH1,1.18 ± 0.08 µM
same,IC50,HsMDH2; [5],1.11 ± 0.01 µM
Nc1nc(-c2ccc(Br)cc2)cs1 [compound 6a],Rg from Dmax analysis,PfMDH [2]; apo 33.93 ± 4,34.52 ± 4.3 Å
same,Dmax,PfMDH [2]; apo 104.75,113.74 Å
same,MW estimate of PfMDH complex,PfMDH [2]; apo 113.65,91.175 kDa
same,radius of gyration Rg of PfMDH in complex,PfMDH [2],36.4 ± 3.15 Å and 36.4 Å
same,aggregation in DLS,PfMDH [3],no aggregation in DLS
same,precipitation of compound in the buffer,[4],precipitation of compound was observed
COC(=O)c1cccc(NC(=O)CCOc2ccc(C(C)(C)CC(C)(C)C)cc2)c1 [Inhibitor 16c],IC50,HsMDH1,1.07 ± 0.07 µM
same,IC50,HsMDH2; [5],1.06 ± 0.03 µM
NC(=O)C(=O)O [Oxamate],IC50,PfMDH [1],> 2000 µM
Nc1nc(-c2ccc([N+](=O)[O-])cc2)cs1 [compound 2a],radius of gyration Rg of PfMDH in complex,PfMDH [2],33.78 ± 0.83 Å and 33.8 Å
same,aggregation in DLS,PfMDH [3],no aggregation in DLS
same,precipitation of compound in the buffer,[4],precipitation of compound was observed
O=c1c(O)c(-c2ccc(O)c(O)c2)oc2cc(O)cc(O)c12 [quercetin],IC50,MDH,6 µM

# From article PMC8355244, “A fragment-based approach identifies an allosteric pocket that impacts malate dehydrogenase activity” (Communications Biology, 2021)
